Laboratory results published in the supplement of paper PMC10290057.
Where a name gives a salt, the structure may show the parent alone.

Experiments:
HCT116 [1] = experiment: efficacy (fitted maximal change in viability relative to DMSO control); higher = less cytotoxic (negative = loss of viability); settings: 48 h
HCT116 [2] = experiment: AC50 cell viability (CellTiter-Glo); higher = less potent; settings: 48 h
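Throughout, for AC50 cell viability (CellTiter-Glo): HCT116 colorectal carcinoma cells screened at five concentrations per compound, luminescent viability scaled between DMSO wells and empty wells on each plate, curves fitted per compound.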
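Throughout, for efficacy (fitted maximal change in viability relative to DMSO control): Luminescence-based viability readout, five doses per compound, normalized against on-plate DMSO and empty-well controls, followed by dose-response curve fitting for every drug.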

Structure (SMILES)	efficacy (HCT116 [1])	AC50 cell viability (HCT116 [2])
O=C(O)c1ccc(-n2nc(-c3ccccc3O)nc2-c2ccccc2O)cc1 [Deferasirox]	-92.9%	13.2 µM
NCC1CCN(c2nccc(-c3ccc4ccccc4c3)n2)CC1	-126%	14.8 µM
CC/C(=C(\c1ccccc1)c1ccc(OCCN(C)C)cc1)c1ccccc1 [Tamoxifen]	-87.8%	15.2 µM
CN(C)C[C@@H]1CC[N]2C=C(C3=C2C=CC=C3)C/4=C(/C(=O)NC4=O)C5=C[N](CCO1)C6=C5C=CC=C6 [Ruboxistaurin mesylate]	-102%	8.33 µM
COC1=C(CN(C)C)C=C(OC)C(=C1)C/2=C/N(C)C(=O)C3=C2C=CN=C3 [BI-9564]	-71.5%	14.8 µM
CCCCNc1ncc2c(-c3ccc(CN4CCN(C)CC4)cc3)cn(C3CCC(O)CC3)c2n1 (stereo not drawn) [UNC-2025]	-74.3%	1.66 µM
O=C([O-])C[C@H](O)C[C@H](O)/C=C/c1c(C2CC2)nc2ccccc2c1-c1ccc(F)cc1 [Pitavastatin calcium]	-103%	14.8 µM
O=C(CCCCCCC(=O)N/N=C/c1ccc(N(c2ccccc2)c2ccccc2)cc1)NO [WT-161]	-86.8%	2.09 µM
Nc1nc2cc(-c3ccc4ncc(C(=O)N5CCOCC5)n4c3)ccc2o1 [Serabelisib]	-53.2%	4.68 µM
CN(C)CCN1C(=O)c2cccc3cc(NC(N)=O)cc(c23)C1=O [UNBS-5162]	-75%	4.68 µM
Cc1cc(O)c(-c2ccc([C@@H](C)CN(C)C)cc2)c2c1[nH]c(=O)c1sccc12 [OTS964]	-63.1%	0.0295 µM
OC(c1cc(C(F)(F)F)nc2c(C(F)(F)F)cccc12)C1CCCCN1 (stereo not drawn) [MEFLOQUINE]	-109%	20.9 µM
CNC(=O)c1ccc2c(c1)NC(=O)/C2=C(\Nc1cccc(CN(C)C)c1)c1ccccc1	-93.1%	18.6 µM
Cc1c(C(=O)Nc2ccc(N3C[C@@H](C)O[C@@H](C)C3)nc2)cccc1-c1ccc(OC(F)(F)F)cc1 [Sonidegib]	-74.9%	20.9 µM
Cc1ccc(NC(=O)c2ccc(CN3CCNCC3)cc2)cc1Nc1nccc(-c2cccnc2)n1	-93.9%	18.6 µM
COc1cccc(Nc2ncnn3ccc(CN4CC[C@@H](N)[C@H](O)C4)c23)c1	-71.1%	18.6 µM
O=C(/C=C\n1cnc(-c2cc(C(F)(F)F)cc(C(F)(F)F)c2)n1)N1CC(F)(F)C1 [KPT-276]	-75.6%	0.59 µM
CCCCCCCCc1ccc(CCC(N)(CO)CO)cc1 [Fingolimod hydrochloride]	-105%	20.9 µM
O=C(Nc1c[nH]nc1-c1nc2cc(CN3CCOCC3)ccc2[nH]1)NC1CC1 [AT-9283]	-62.5%	0.417 µM
O=C(C1CC1)N1CC[C@@H](Cn2c(-c3ccc(-c4ccc5occc5c4)cc3)nc3cnccc32)C1	-66.1%	23.5 µM

Structure (SMILES)	efficacy (HCT116 [1])	AC50 cell viability (HCT116 [2])
NC1=C(Cl)C(=CC=N1)OC2=C(F)C=C(NC(=O)\C3=C\N\C=C(C3=O)\C4=CC=C(F)C=C4)C=C2	-78.4%	16.6 µM
NC(=O)c1c(OCc2c(F)cc(Br)cc2F)nsc1NC(=O)NCCCCN1CCCC1 [OSI-632]	-100%	23.5 µM
CC(C)(C)OC(=O)Nc1ccc(-c2cc(C(=O)NCCCCCCC(=O)NO)no2)cc1 [ISOX]	-91.5%	1.86 µM
N#Cc1cccc(-c2c[nH]c3ncnc(N4CCOCC4)c23)c1	-40.9%	16.6 µM
COc1cc(N2CCC(N3CCN(C)CC3)CC2)ccc1Nc1ncc(Cl)c(Nc2ccccc2[S+](=O)([O-])C(C)C)n1 [TAE-684]	-110%	1.18 µM
COC1=CC(=C2C(=O)N\C(=N/C2=C1)C3=CC(=C(OCCO)C(=C3)C)C)OC [RVX-208]	-41.5%	18.6 µM
Nc1cccc(-c2cc3c(Oc4cccc(O)c4)ncnc3[nH]2)c1 [TWS-119]	-90.2%	11.8 µM
Nc1nc(NCCNc2ncc(-n3ccnc3)c(-c3ccc(Cl)cc3Cl)n2)ccc1[N+](=O)[O-]	-32%	2.09 µM
COc1cc(Nc2c(C#N)cnc3cc(OCCCN4CCN(C)CC4)c(OC)cc23)c(Cl)cc1Cl [Bosutinib]	-93.7%	4.68 µM
Cc1ccc([S+](=O)([O-])Nc2cc(-c3ccc(C#N)s3)ccc2C)cc1	-59.9%	0.0372 µM
CCCCCNC(=N)N/N=C/c1c[nH]c2ccc(OC)cc12 [Tegaserod maleate]	-92.3%	7.42 µM
CN1CCC(CNc2ccc3ncc(-c4cccc(OC(F)(F)F)c4)n3n2)CC1 [SGI-1776]	-102%	6.61 µM
CCCCc1oc2ccc(N[S+](C)(=O)[O-])cc2c1C(=O)c1ccc(OCCCN(CCCC)CCCC)cc1 [Dronedarone hydrochloride]	-102%	8.33 µM
Oc1ccc(-c2nc(-c3ccncc3)c(-c3ccc(F)cc3)[nH]2)cc1	-80%	23.5 µM
CC[C@@H](C)Nc1cc(C(=O)NC2CC3CC[C@@H](C2)N3c2ccc(C(=O)C3CC3)cn2)c(C)cc1C(N)=O (stereo partly drawn) [XL-888]	-59.7%	0.0833 µM
Cc1ccc(C(=O)Nc2ccc(CN3CCN(C)CC3)c(C(F)(F)F)c2)cc1C#Cc1cnc2[nH]ncc2c1 [GZD-824]	-121%	0.934 µM
COc1cc(Oc2ccnc3cc(OC)c(OC)cc23)ccc1NC(=O)NC(C)c1nccs1 (stereo not drawn)	-63.5%	20.9 µM
C[N]1C=NC=C1C(N)(C2=CC=C(Cl)C=C2)C3=CC\4=C(C=C3)N(C)C(=O)\C=C4C5=CC(=CC=C5)Cl (stereo not drawn) [Tipifarnib,Freebase]	-120%	20.9 µM
CCOC\1=C(/C(=O)NC2=CC=C(OC3=C(Cl)C(=NC=C3)N)C(=C2)F)C(=O)N(\C=C1)C4=CC=C(F)C=C4	-67.3%	18.6 µM
COc1ccc(N(C(=O)Oc2c(C)cccc2C)c2ccnc(Nc3ccc(N4CCN(C)CC4)cc3)n2)c(OC)c1	-41%	0.661 µM

Structure (SMILES)	efficacy (HCT116 [1])	AC50 cell viability (HCT116 [2])
CC(NC1=NC=NC2=C1[NH]C=N2)\C3=C\C4=C(C(=CC=C4)Cl)C(=O)N3C5=CC=CC=C5 (stereo not drawn) [IPI-145]	-58.5%	14.8 µM
COc1cccc2c(NCc3ccccc3)nc(-n3c(N)nc4ccccc43)nc12	-93.4%	5.9 µM
COC1=C(OCCCN2CCOCC2)C=C3N=CC=C(OC4=CC=C(C=C4F)\C5=C\N=C(\NC6=CC=C(F)C=C6)N(C)C5=O)C3=C1 [AMG-51]	-136%	16.6 µM
Cc1oncc1C(=O)Nc1ccc(C(F)(F)F)cc1 [Leflunomide]	-31.2%	3.32 µM
CCNC(=O)c1cc2c(-c3cc(OCCN4CCCC4)c(Cl)cc3Cl)nc(N)nc2s1	-57.9%	0.456 µM
Nc1nc(Nc2ccc3c(c2)CC[C@@H](N2CCCC2)CC3)nn1-c1cc2c(nn1)-c1ccccc1CCC2 [Bemcentinib]	-108%	14.8 µM
CCC(=O)N1CCOc2c(cc(-c3cc(OC)cc(OC)c3)cc2C(=O)N[C@H]2CCCN(C)C2)C1 [TPOP-146]	-79.1%	20.9 µM
Cc1ccc(-c2ccc3c(ccc4sc5c(c43)NC[C@@H](C)NC5=O)n2)cn1	-96.2%	20.9 µM
Oc1ccc(C2CCN(c3ccnc4ccccc34)CC2)cc1O	-49%	11.8 µM
O=C(Nc1ccccc1Br)N[C@@H]1CCN(c2ccc(C(F)(F)F)cn2)C1	-39.8%	16.6 µM
CC/C(=C(/CC)c1ccc(O)cc1)c1ccc(O)cc1 [Diethylstilbestrol]	-47.2%	18.6 µM
O=C(NCc1ccncc1)C12C[C@H]3C[C@@H](C1)CC(c1ccc(Cl)cc1)(C3)C2	-52.9%	20.9 µM
CO[C@H]1C[C@H]2OC[C@@]2(OC(C)=O)[C@H]3[C@H](OC(=O)C4=CC=CC=C4)[C@]5(O)C[C@H](OC(=O)[C@H](O)[C@@H](NC(=O)OC(C)(C)C)C6=CC=CC=C6)/C(=C(/[C@@H](OC)C(=O)[C@]13C)C5(C)C)C [Cabazitaxel]	-57.4%	0.00263 µM
COc1ccc2[nH]c3c(c2c1)CCN[C@]31CS[C@@H]2c3c(OC(C)=O)c(C)c4c(c3[C@H](COC1=O)N1[C@@H]2[C@H]2c3c(cc(C)c(OC)c3O)C[C@@H]([C@@H]1O)N2C)OCO4 [Lurbinectedin]	-72.4%	0.00539 µM
CN[C@@H](C)C(=O)N[C@H]1CCCC[C@H]2CC[C@@H](C(=O)N[C@@H](c3ccccc3)c3cn(CCCCc4ccc(CCCCn5cc([C@@H](NC(=O)[C@@H]6CC[C@@H]7CCCC[C@H](NC(=O)[C@H](C)NC)C(=O)N76)c6ccccc6)nn5)cc4)nn3)N2C1=O [SM-164]	-89.2%	23.5 µM
COc1ccc(Nc2cc(-c3cnc(N)nc3)nc(N3CCOCC3)n2)cn1 [NIBR-17]	-65.5%	2.63 µM
Cc1nc2ccc(-n3ncc(C(=O)c4cc5ccccc5[nH]4)c3N)cc2[nH]1	-71.3%	8.33 µM
Nc1nc2ccc(OC(F)(F)F)cc2s1 [Riluzole]	-59.1%	10.5 µM
CN(C)Cc1cccc(N/C(=C2\C(=O)Nc3cc(C(=O)N(C)C)ccc32)c2ccccc2)c1	-69.8%	13.2 µM
